Laboratory results as given in patent publication US20080267948A1, “Croos-B Structure Binding Compounds” (priority 2005, published 2008).

T1: factor XII (Homo sapiens, UniProt P00748)
T1 sequence (P00748 20-615): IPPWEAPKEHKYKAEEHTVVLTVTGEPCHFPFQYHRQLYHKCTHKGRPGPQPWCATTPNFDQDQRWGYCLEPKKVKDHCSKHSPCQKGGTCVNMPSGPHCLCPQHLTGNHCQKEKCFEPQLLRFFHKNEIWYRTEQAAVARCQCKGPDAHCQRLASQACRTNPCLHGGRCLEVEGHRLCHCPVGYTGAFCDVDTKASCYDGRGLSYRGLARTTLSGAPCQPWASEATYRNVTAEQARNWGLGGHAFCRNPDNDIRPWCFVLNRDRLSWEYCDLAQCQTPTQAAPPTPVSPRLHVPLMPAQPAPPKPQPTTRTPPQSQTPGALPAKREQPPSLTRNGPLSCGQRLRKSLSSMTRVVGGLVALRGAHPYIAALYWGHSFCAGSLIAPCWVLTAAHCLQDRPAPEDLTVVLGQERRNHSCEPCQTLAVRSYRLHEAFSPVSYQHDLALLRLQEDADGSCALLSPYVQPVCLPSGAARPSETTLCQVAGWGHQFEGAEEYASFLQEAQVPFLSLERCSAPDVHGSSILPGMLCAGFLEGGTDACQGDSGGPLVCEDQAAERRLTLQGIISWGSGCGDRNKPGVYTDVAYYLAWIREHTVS


Legend:
[1] = system: amyloid-β and glycated albumin; experiment: ELISA binding of tPA to immobilized amyloid-β and glycated albumin with Congo red or ThT; conditions: concentration series of dye
Method: After 5 washes with wash buffer followed by two washes with PBS, binding of antibodies was assessed. […] Triplicates were averaged and standard deviations calculated.

[2] = molecular target: T2, Hb-AGE (glucose-6-phosphate modified human haemoglobin) (Homo sapiens, UniProt P68871+P69905); experiment: ELISA binding of tPA to immobilized Hb-AGE, compounds co-incubated with tPA; conditions: dye included in the tPA solution
T2 construct: purchased Sigma-Aldrich H7379
Method: The small compound library is depicted in Tables 4-5. […] Binding experiments were performed in single wells per compound, in a duplicate experiment. Binding data obtained with this duplicate experiment was averaged.
• 1. […] Coat buffer in control wells. • 2. wash three times with wash buffer • 3. Block all wells with 300 μl 0.5*recommended concentration Roche blocking reagent for 30 minutes at room temperature, with agitation • 4. wash twice • 5. […] Incubate for 30 minutes at room temperature, with agitation • 7. wash five times with TBS/0.1% Tween20 • 8. […] Incubate for 30 minutes at room temperature, with agitation • 10. wash five times with TBS/0.1% Tween20 • 11. Fill wells with 3000× diluted horse raddish peroxidase-labeled polyclonal rabbit anti-mouse antibody (RAMPO, DAKOCytomation) • 12. Incubate for 20 minutes at room temperature, with agitation • 13. Wash five times with TBS/0.1% Tween20 • 14. Wash twice with PBS • 15. Stain with 100 μl TMB, stop with 50 μl 10% H2SO4 • 16. Read absorbance at 450 nm

[3] = molecular target: T3, glycated haemoglobin (Hb-AGE) (Homo sapiens, UniProt P68871+P69905); experiment: ELISA binding of IgIV to immobilized Hb-AGE and inhibition studies; conditions: 15 μg/ml IgIV, concentration series of competitor
T3 construct: purchased Sigma-Aldrich H7379
Method: Binding of IgIV was determined using an enzyme linked immunosorbent assay (ELISA) set-up. For this purpose 50 μl/well of potential ligands at indicated concentrations or coat buffer only for control and background measurement purposes, were coated overnight at 4° C., with motion, in 50 mM NaHCO3 pH 9.6. Glycated albumin and Hb (BSA-AGE and Hb-AGE), control BSA and control Hb were coated at 5 μg/ml. The BSA and Hb controls were prepared freshly by dissolving lyophilized proteins at 1 mg/ml in PBS upon resuspending by pipetting, followed by a 30′ period at the roller bank, at room temperature. The protein solutions were centrifuged for 10′ at 16,000*g and diluted in coat buffer. Coat controls were performed with anti-glycated protein antibody, anti-albumin antibody, anti-Hb antibody. The alkaline phosphatase-conjugated anti-human Ig antibodies were controlled by coating the IgIV's and overlaying them the secondary antibodies. After coating the plates were washed twice with 50 mM Tris-HCl pH 7.3, 150 mM NaCl, 0.1% v/v Tween20, and blocked with 175 μl/well Blocking reagent (Roche Diagnostics, Almere, The Netherlands; catalogue number 11112589001), for 1 h at room temperature, with motion. Plates were washed twice and incubated in triplicate with indicated antibodies dilution series, plasma dilution series or controls, including binding buffer only, in the absence or presence of putative inhibitors, in binding buffer; PBS/0.1% v/v Tween20, at 50 μl/well, for 1 h at room temperature, with constant motion. After four wash cycles, secondary antibodies were added to the wells, 50 μl/well, for 45′ at room temperature, with motion. RAMPO and SWARPO were used at 2000 times dilution, goat anti-human IgG antibodies were diluted 3000 times, goat anti-human IgM antibodies were diluted 1000 times. After 5 washes with wash buffer followed by two washes with PBS, binding of antibodies was assessed. […] After 5′ absorbance was read at 405 nm. […] After 5′ absorbance was read at 490 nm. […] Triplicates were averaged and standard deviations calculated. […]

[4] = system: amyloid γ-globulins; experiment: Inhibition ELISA of monoclonal 7H2H2 binding to immobilized amyloid γ-globulins; set-up: species or system human
Method: When binding of a monoclonal antibody to an aggregate with amyloid-like properties was confirmed, the influence of Congo red on this interaction was tested as follows. Amyloid γ-globulins were coated onto a high-binding plate (Greiner Microlon, Bio-One GmbH, Frickenhausen, Germany), blocked with Roche blocking reagent, and overlayed with 10 times diluted hybridoma cell culture medium with a concentration series of Congo red. In addition, the inhibitory effect of compounds with cross-(structure conformation on binding of a monoclonal antibody to immobilized cross-β structure conformation comprising antigens was tested with an ELISA set-up. For this purpose, a limiting amount of antigen, i.e. 0.5 μg ml^−1 amyloid γ-globulins, was immobilized onto a Greiner high-binding plate. It was determined that 80 times diluted hybridoma cell culture supernatant contains an amount of antibody that results in less than maximal signal when used in ELISAs with immobilized proteins with cross-β structure conformation (not shown). Now, concentration series of freshly dissolved-, amyloid-, acid-denatured- and base-denatured γ-globulins at 0.1, 1, 10 and 100 μg ml^−1 was added to the 80 times diluted hybridoma cell culture supernatant, and used to overlay the immobilized amyloid γ-globulins. The amount of bound antibody was determined with RAMPO. […]

[5] = molecular target: T1, factor XII; experiment: ELISA binding of β2GPI to immobilized factor XII; set-up: human factor XII from plasma (Calbiochem); purchased Calbiochem; host or cells: human plasma
Method: (§1) Binding of β2GPI was assessed with monoclonal antibody 2B2^17.

[6] = system: anti-β2GPI auto-antibodies from antiphospholipid syndrome patients; experiment: Interference with binding of anti-β2GPI autoantibodies to immobilized β2GPI; set-up: species or system human; conditions: concentration series of β2GPI in solution
Method: β2GPI by recombinant β2GPI and not by plasma derived β2GPI When plasma derived β2GPI is coated onto hydrophilic ELISA plates, anti-β2GPI auto-antibodies isolated from plasma of antiphospholipid syndrome autoimmune patients can bind^18. To study the influence of coincubations of the coated β2GPI with the antibodies together with plasma β2GPI or recombinant β2GPI, concentration series of β2GPI were added to the patient antibodies. Subsequently, binding of the antibodies to coated β2GPI was determined.

[7] = molecular target: tPA (Homo sapiens, UniProt P00750); experiment: ELISA binding of β2GPI to immobilized tPA
Method: as §1

T2 sequence (P69905 2-142 limits assumed): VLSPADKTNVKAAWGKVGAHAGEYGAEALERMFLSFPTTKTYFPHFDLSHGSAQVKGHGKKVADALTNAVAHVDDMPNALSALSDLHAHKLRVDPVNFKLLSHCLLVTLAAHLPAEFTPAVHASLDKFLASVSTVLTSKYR
T2 sequence (P68871 2-147 limits assumed): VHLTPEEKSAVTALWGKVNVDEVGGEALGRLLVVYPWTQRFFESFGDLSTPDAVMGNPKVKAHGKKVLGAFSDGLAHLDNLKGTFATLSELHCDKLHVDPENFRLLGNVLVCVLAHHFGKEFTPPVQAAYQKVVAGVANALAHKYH
T3 sequence (P69905 2-142 limits assumed): as the sequence (P69905 2-142 limits assumed) above
T3 sequence (P68871 2-147 limits assumed): as the sequence (P68871 2-147 limits assumed) above
Sequence of tPA (P00750 36-562): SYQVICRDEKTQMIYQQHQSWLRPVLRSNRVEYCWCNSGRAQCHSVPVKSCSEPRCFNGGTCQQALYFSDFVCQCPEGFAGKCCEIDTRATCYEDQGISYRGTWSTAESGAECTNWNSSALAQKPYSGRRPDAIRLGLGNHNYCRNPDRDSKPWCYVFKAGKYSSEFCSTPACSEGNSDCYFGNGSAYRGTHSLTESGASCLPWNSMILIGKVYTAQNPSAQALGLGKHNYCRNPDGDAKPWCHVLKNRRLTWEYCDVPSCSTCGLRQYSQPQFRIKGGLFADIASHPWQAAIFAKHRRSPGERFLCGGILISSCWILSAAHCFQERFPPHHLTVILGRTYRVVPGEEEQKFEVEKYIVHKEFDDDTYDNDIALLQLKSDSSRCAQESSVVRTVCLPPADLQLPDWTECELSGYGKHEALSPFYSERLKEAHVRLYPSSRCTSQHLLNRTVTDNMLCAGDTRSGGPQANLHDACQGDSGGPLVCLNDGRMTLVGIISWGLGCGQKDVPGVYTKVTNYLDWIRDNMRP

Row | inhibition of tPA binding to immobilized amyloid-β and glycated albumin [1] | influence on binding of tPA to immobilized misfolded protein [2] | influence on binding of IgIV to immobilized Hb-AGE [3] | inhibition of 7H2H2 binding to amyloid γ-globulins ([4]; 500 μM Congo red, diluted 7H2H2 cell culture medium) | Congo red concentrations that inhibit binding of 7H2H2 ([4]; 7H2H2 from 10 times diluted culture medium) | binding to factor XII [5] | inhibition of binding of anti-β2GPI auto-antibodies to immobilized β2GPI [6] | binding to tPA [7] | Molecule
1 | effectively inhibited | inhibits binding of tPA | fully blocks IgIV binding | approximately 66% | higher than 5 μM |  |  |  | Nc1c(/N=N/c2ccc(-c3ccc(/N=N/c4cc(S(=O)(=O)O)c5ccccc5c4N)cc3)cc2)cc(S(=O)(=O)O)c2ccccc12 [Congo red]
2 | not by ThT | promotes binding of tPA | enhance the binding of IgIV |  |  |  |  |  | Cc1ccc2c(c1)sc(-c1ccc(N(C)C)cc1)[n+]2C.[Cl-] [Thioflavin T]
3 |  |  |  |  |  | not bind | has a minor effect on antibody binding | not bind | plasma β2GPI: β2-glycoprotein I purified from fresh human plasma (protein, UniProt P02749 20-345, looked up) Beta-2-glycoprotein 1: GRTCPKPDDLPFSTVVPLKTFYEPGEEITYSCKPGYVSRGGMRKFICPLTGLWPINTLKCTPRVCPFAGILENGAVRYTTFEYPNTISFSCNTGFYLNGADSAKCTEEGKWSPELPVCAPIICPPPSIPTFATLRVYKPSAGNNSLYRDTAVFECLPQHAMFGNDTITCTTHGNWTKLPECREVKCPFPSRPDNGFVNYPAKPTLYYKDKATFGCHDGYSLDGPEEIECTKLGNWSAMPSCKASCKVPVKKATVVYQGERVKIQEKFKNGMLHGDKVSFFCKNKEKKCSYTEDAQCIDGTIEVPKCFKEHSSLAFWKTDASDVKPC
